Assay results from US12285440B2, “APOE4 impairs myelination via altered cholesterol biosynthesis and transport in oligodendroglia” (Massachusetts Institute of Technology, priority 2021, dated 2025).

How the values were obtained:
Assay type in all cases: cell-based, human
APOE3 iMGLs [1] = test: Lipid droplet induction in APOE3 iMGLs, BODIPY/IBA1 staining; conditions: 20 μM, 16 hours
APOE3 iMGLs [2] = test: Calcium imaging upon ATP uncaging in OA-treated APOE3 iMGLs; conditions: 20 μM, 16 hours, vs untreated APOE3 iMGLs
APOE3 iMGLs [3] = test: qPCR of OA-treated iMGLs; conditions: 20 μM, 16 hours
APOE4 iMGLs [4] = test: Purinergic signaling in TrC-treated APOE4 iMGLs; conditions: 1 μM, 16 hours
APOE4 iMGLs [5] = conditions: 1 μM, 16 hours, vs DMSO-treated control cells
NGN2-induced neurons = test: MEA recording of NGN2-induced neurons exposed to iMGL conditioned media; conditions: 24 hours after exposure to conditioned media from APOE4 iMGL pre-treated with TrC
Procedure: Having induced lipid formation in APOE3 iMGLs, we next attempted to deplete APOE4 iMGLs of lipid droplets to test whether this would alleviate APOE4 phenotypes. We turned to the ACSL1 inhibitor Triacsin C (TrC). […] Since TrC has also been reported to inhibit cholesterol biosynthesis and increase microglial phagocytosis, we decided to test if the extracellular accumulation of cholesterol in APOE4 iMGLs could be reduced by TrC treatment. After 16 hours, DMSO-treated controls or TrC-treated APOE4 iMGLs were washed off the drug treatment and allowed to condition the media for an additional 24 hours. […] NGN2-induced neurons from APOE3 or APOE4 iPS lines were seeded onto MEAs and allowed to mature for 3 weeks before being recorded 24 hours after exposure to conditioned media from APOE3 iMGLs, APOE4 iMGLs, or APOE4 iMGL treated with TrC. […]
Dissociated spheroids or NGN2-induced neurons were plated as a 10 μl droplet in Poly-D-Lysine (Sigma-Aldrich) coated wells of a CytoView MEA 48-well plate (Axion BioSystems; M768-tMEA-48B). […] Spontaneous neural activity was recorded for 30 minutes at a sampling rate of 12.5 kHz and an adaptive threshold set at 5.5 times the standard deviation of baseline noise was used for spike detection. Bursts were detected at each electrode using an inter-spike interval (ISI) threshold set to at least 5 spikes with a maximum ISI of 100 ms. […]

APOE4 iMGLs [6] = test: Cholesterol in media of APOE4 iMGLs via ELISA; conditions: 16 hours treatment, drug washed off, media conditioned 24 hours; vs DMSO-treated controls
Procedure: Having induced lipid formation in APOE3 iMGLs, we next attempted to deplete APOE4 iMGLs of lipid droplets to test whether this would alleviate APOE4 phenotypes. We turned to the ACSL1 inhibitor Triacsin C (TrC). […] Since TrC has also been reported to inhibit cholesterol biosynthesis and increase microglial phagocytosis, we decided to test if the extracellular accumulation of cholesterol in APOE4 iMGLs could be reduced by TrC treatment. After 16 hours, DMSO-treated controls or TrC-treated APOE4 iMGLs were washed off the drug treatment and allowed to condition the media for an additional 24 hours. […] We reasoned that a decrease in extracellular cholesterol accumulation in APOE4 iMGLs cultures treated with TrC was likely to also relieve the suppression of neuronal activity under APOE4 iMGL conditioned media. NGN2-induced neurons from APOE3 or APOE4 iPS lines were seeded onto MEAs and allowed to mature for 3 weeks before being recorded 24 hours after exposure to conditioned media from APOE3 iMGLs, APOE4 iMGLs, or APOE4 iMGL treated with TrC. […]
[…] Measurements were made using an EnSpire plate reader (Perkin Elmer). APOE levels were similarly processed and quantified from iMGL conditioned media using Apolipoprotein E Human ELISA kit (Invitrogen; #EHAPOE).

Compound | cell size of iMGLs (APOE3 iMGLs [1]) | intracellular BODIPY-positive lipid droplets (APOE3 iMGLs [1]; IBA1-positive cells) | calcium transients evoked by ATP uncaging (APOE3 iMGLs [2]) | CD74 expression by qPCR (APOE3 iMGLs [3]) | expression of ACSL1 (APOE3 iMGLs [3]) | purinergic signaling (APOE4 iMGLs [4]) | BODIPY-positive lipid droplets (APOE4 iMGLs [5]) | neuronal bursts / neural activity on MEA (NGN2-induced neurons) | levels of accumulated cholesterol in the media (APOE4 iMGLs [6])
CCCCCCCC/C=C\CCCCCCCC(=O)O [OA, oleic acid] | decrease in the cell size of iMGLs | accumulated intracellular BODIPY-positive lipid droplets | sufficient to blunt calcium transients evoked by ATP uncaging relative to untreated APOE3 iMGLs | upregulation of this gene | significantly induced the expression of ACSL1 | – | – | – | –
CCC/C=C/C/C=C/C=C/C=N/NN=O [TrC, Triacsin C] | – | – | – | – | – | purinergic signaling was restored after lipid droplet depletion | dramatically reduce BODIPY-positive lipid droplets relative to DMSO-treated control cells | increased neural activity to the level of neurons treated with APOE3 iMGL media | significant decrease in the levels of accumulated cholesterol in the media
